The test system of data set [1] is 5TGM1-GFP tumors in C57Bl/KaLwRij mice. The data set can be described thus: In vivo and ex vivo NIR fluorescence imaging in the 5TGM1/KaLwRij i.v. MM model. Also on record: species or system mouse. On the procedure: All animal studies were conducted according to protocols approved by the Washington University Animal Studies Committee. Mice were anesthetized for all treatments and imaging with 2% v/v isoflurane/100% O2. Female 1–3 month-old C57Bl/6 KaLwRij mice were injected intravenously (i.v.) with 10^6 5TGM1-GFP cells in 100 µL 1 × PBS via the lateral tail vein. Imaging studies were performed 3–4 weeks after tumor implantation. Prior to imaging, hair was removed by gentle clipping and depilatory cream to improve light transmission. Supplemental Fig. S1. […] The images were background subtracted and gated by fluorescence lifetime to minimize autofluorescence and diet-related non-specific fluorescence[65],[66].
Supplementary Fig. 4. Mice were anesthetized for all imaging with 2% v/v isoflurane/100% O2. Female (n = 2)1–3 month old C57Bl/6 KaLwRij mice were injected with 1 × 10^6 5TGM1-GFP WT in 100 µL PBS via the lateral tail-vein. In vivo 3D fluorescence imaging in Supplemental Fig. 3A was performed on IVIS Spectrum CT (PerkinElmer, Waltham, MA) with auto-exposure settings in the GFP wavelength (Ex./Em. 480 nm/520 nm) filter pair.
Supplementary Fig. 5. Mice were anesthetized for all imaging with 2% v/v isoflurane/100% O2. Female 1–3 month old C57Bl/6 KaLwRij mice were injected with 1 × 10^6 5TGM1-GFP WT (n = 11) or KO (n = 12) cells in 100 µL PBS via the lateral tail-vein.
2D analysis and 3D in vivo and ex vivo reconstructions were performed using the Living Image 4.7.1 analysis software. Background fluorescence was subtracted automatically via the “Adaptive Background Subtraction” module within the Living Image 4.7.1 program. Analysis of 2D ex vivo fluorescent images was performed by measuring Total Radiant Efficiency (TRE) (photons/sec/cm^2/sr)/(μW/cm^2) from ROIs drawn around bone and muscle tissue in the GFP and Cy5 images. Tissue to muscle ratio was calculated by dividing TREs of tissue by TREs of muscle tissue of each respective mouse.
(§1) [picture] Supplementary Figure 4. […] In vivo 3D fluorescence imaging was performed on IVIS Spectrum CT (PerkinElmer, Waltham, MA) with auto-exposure settings in the GFP wavelength (Ex./Em. 480nm/520nm) filter pair. […] GFP^+ cells were co-stained with PE-conjugated anti-mouse CD49d and eFluor450-conjugated anti-mouse CD29 antibodies (middle; Thermo Fisher Scientific) to identify VLA4^+ cells.

Another data set has as its system monocytes. The data set can be described thus: Binding studies with MM patient BM samples, monocytes. Details: species or system human. On the procedure: (§2) Purified cells were > 97% for CD38 + CD138 + plasma cells.
(§3) The data were analyzed on FlowJo software. The appropriate isotype antibodies were used as controls.

Data set [2] deals with activated VLA4 on the surface of the 5TGM1-GFP murine myeloma cells (Mus musculus, UniProt P09055+Q00651). The data set can be described thus: Confocal microscopy of cell surface binding and internalization of Cy5-labelled probes. The following applies: WT 5TGM1-GFP cells.
Procedure: Blue, green and red colors represent nuclear stain, GFP, and Cy5 signal, respectively in all images (60x; scale bar: 20 µm). […] BIO5192 (100 nM) was used to evaluate non-specific binding.
WT 5TGM1-GFP cells were plated on 35 mm glass bottom MatTek dishes pre-coated with poly-D-lysine (glass no. 1.5; MatTek Corporation, MA) at 10^5 cells/cm^2 and allowed to attach for 1 h at 37 °C. Cells were incubated with the Cy5-labelled probes (1 µM) at 4 °C for 15 min, and at 37 °C for 2.5 h to assess cell surface binding specificity and cellular internalization, respectively. Hoechst 34,580 (10 µg/L, Invitrogen, CA) was added for the last 15 min of incubation to counterstain cell nuclei. Fluorescence confocal microscopy was performed on a Nikon A1Rsi confocal microscope (Nikon Corporation, Tokyo, Japan) with 60X and 100X oil immersion objectives using excitation-emission settings at 405 nm-450/40 nm (Hoechst 34,580), 488 nm-530/20 nm (GFP), and 640–660/20 nm (Cy5).
In data set [3] the test system is VLA4 expressing cells in BM and spleen of 5TGM1-GFP tumor mice. The data set can be described thus: FACS of ex vivo tissue samples after LLP2A-Cy5 injection. It counts as in vivo, mouse. The following applies: after i.v. LLP2A-Cy5. On the procedure: as §3, §1
Data set [4] deals with activated VLA4 on CD138+CD38+ MM PCs (Homo sapiens, UniProt P05556+P13612). The following applies: nineteen de-identified BM samples from myeloma patients (13/19); HBSS with Ca2+, Mg2+, 0.1% BSA. On the procedure: […] The human and mouse FC receptors were blocked by human BD Fc block and mouse BD Fc block, respectively. The cell suspension was incubated with fluorochrome-conjugated monoclonal antibodies in dark, at room temperature, for 30 min. Cells were washed twice with buffer afterward, and then proceeded analysis on a Beckman Coulter Gallios flow cytometer. The dead cells were excluded by using 7-amino-actinonycin D (7-AAD). The data were analyzed on FlowJo software. The appropriate isotype antibodies were used as controls.

For the next data set, the system named is B-lymphocytes. The data set can be described thus: Binding studies with MM patient BM samples, B-lymphocytes. Details: species or system human. On the procedure:
as §2, §3

Data set [5] has as its target T1, VLA4 on WT 5TGM1-GFP cells (Mus musculus, UniProt P09055+Q00651).
T1 construct: endogenous in cells; host or cells: WT 5TGM1-GFP murine myeloma cells
The data set can be described thus: Flow cytometry binding to WT 5TGM1-GFP cells. Also on record: species or system murine. The following applies: for binding to WT cells (flow cytometry gate): 1.5 × 10^5 WT 5TGM1-GFP cells, no BIO5192; for binding to WT cells after pre-incubation with BIO5192: WT 5TGM1-GFP cells, pre-incubation with an established therapeutic dose of BIO5192. On the procedure: (§4) The single cells were suspended in phosphate-buffered saline (PBS) with 0.1% bovine serum albumin as buffer. The human and mouse FC receptors were blocked by human BD Fc block and mouse BD Fc block, respectively. The cell suspension was incubated with fluorochrome-conjugated monoclonal antibodies in dark, at room temperature, for 30 min. Cells were washed twice with buffer afterward, and then proceeded analysis on a Beckman Coulter Gallios flow cytometer. The dead cells were excluded by using 7-amino-actinonycin D (7-AAD). The data were analyzed on FlowJo software. The appropriate isotype antibodies were used as controls.
On the technique in general: Flow cytometry measures light scatter and fluorescence of single cells or particles in a stream.

The target in another data set is activated VLA4 on H929 (Homo sapiens, UniProt P05556+P13612). The following applies: H929, flow cytometry. On the procedure:
as §4

For another data set, the target named is activated VLA4 on 5TGM1 (Mus musculus, UniProt P09055+Q00651). The settings on record: 5TGM1, flow cytometry. On the procedure:
as §4

The next data set addresses activated VLA4 on OPM2 (Homo sapiens, UniProt P05556+P13612). The following applies: OPM2, flow cytometry. On the procedure: as §4
The target in the next data set is activated VLA4 on U266 (Homo sapiens, UniProt P05556+P13612). The settings on record: U266, flow cytometry. On the procedure: as §4
The target of data set [6] is activated VLA4 on RPMI-8226 (Homo sapiens, UniProt P05556+P13612). The settings on record: RPMI-8226, flow cytometry. On the procedure: as §4
A further data set concerns the target activated VLA4 on MM1.S (Homo sapiens, UniProt P05556+P13612). The settings on record: flow cytometry. On the procedure:
as §4

The test system of another data set is VLA4 KO 5TGM1-GFP cells. Nature of the data set: Flow cytometry binding to Itga4 KO 5TGM1-GFP cells. Details: species or system murine. The settings on record: for binding to KO cells (flow cytometry gate): 1.5 × 10^5 Itga4 KO 5TGM1-GFP cells, no BIO5192; for binding to KO cells after pre-incubation with BIO5192: Itga4 KO 5TGM1-GFP cells, pre-incubation with an established therapeutic dose of BIO5192. On the procedure:
as §4

A further data set deals with T-lymphocytes. The data set can be described thus: Binding studies with MM patient BM samples, T-lymphocytes. Details: species or system human. On the procedure:
as §2, §3

Where [7] appears, read: ex vivo biodistribution 18 h after i.v. 100 µL of 25 µM LLP2A-Cy5, 5TGM1-GFP WT tumor mice, 3 weeks post inoculation, mean ± SD.

Entries after “also recorded” stand apart in the source; their conditions may differ.

T1 sequence (Q00651 34-1039 limits assumed): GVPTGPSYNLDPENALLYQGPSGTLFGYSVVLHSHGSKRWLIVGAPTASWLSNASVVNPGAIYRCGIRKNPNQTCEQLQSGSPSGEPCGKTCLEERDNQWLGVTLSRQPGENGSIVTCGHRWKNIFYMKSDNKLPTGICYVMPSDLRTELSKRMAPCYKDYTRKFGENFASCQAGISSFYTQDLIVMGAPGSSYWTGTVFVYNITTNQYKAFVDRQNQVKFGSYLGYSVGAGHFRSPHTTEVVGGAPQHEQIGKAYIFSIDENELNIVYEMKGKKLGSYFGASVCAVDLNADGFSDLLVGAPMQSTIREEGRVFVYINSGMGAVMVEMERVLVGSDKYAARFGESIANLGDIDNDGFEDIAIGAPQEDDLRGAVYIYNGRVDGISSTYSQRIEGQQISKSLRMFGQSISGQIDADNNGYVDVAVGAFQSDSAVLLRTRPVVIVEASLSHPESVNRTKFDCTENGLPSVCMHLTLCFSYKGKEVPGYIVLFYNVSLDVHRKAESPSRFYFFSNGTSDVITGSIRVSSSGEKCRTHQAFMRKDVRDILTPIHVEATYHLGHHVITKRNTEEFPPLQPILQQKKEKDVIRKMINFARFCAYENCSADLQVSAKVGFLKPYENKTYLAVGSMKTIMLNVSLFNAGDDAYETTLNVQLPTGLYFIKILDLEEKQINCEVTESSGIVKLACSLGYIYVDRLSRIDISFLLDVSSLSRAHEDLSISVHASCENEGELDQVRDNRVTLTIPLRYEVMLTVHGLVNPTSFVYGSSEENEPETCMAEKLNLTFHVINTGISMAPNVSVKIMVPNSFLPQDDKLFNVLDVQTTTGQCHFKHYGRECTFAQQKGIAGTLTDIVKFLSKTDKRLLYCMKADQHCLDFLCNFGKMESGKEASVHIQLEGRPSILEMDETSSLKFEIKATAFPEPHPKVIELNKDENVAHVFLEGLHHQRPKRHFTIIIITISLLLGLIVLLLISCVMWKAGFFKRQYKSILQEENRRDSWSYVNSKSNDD
T1 sequence (P09055 21-798): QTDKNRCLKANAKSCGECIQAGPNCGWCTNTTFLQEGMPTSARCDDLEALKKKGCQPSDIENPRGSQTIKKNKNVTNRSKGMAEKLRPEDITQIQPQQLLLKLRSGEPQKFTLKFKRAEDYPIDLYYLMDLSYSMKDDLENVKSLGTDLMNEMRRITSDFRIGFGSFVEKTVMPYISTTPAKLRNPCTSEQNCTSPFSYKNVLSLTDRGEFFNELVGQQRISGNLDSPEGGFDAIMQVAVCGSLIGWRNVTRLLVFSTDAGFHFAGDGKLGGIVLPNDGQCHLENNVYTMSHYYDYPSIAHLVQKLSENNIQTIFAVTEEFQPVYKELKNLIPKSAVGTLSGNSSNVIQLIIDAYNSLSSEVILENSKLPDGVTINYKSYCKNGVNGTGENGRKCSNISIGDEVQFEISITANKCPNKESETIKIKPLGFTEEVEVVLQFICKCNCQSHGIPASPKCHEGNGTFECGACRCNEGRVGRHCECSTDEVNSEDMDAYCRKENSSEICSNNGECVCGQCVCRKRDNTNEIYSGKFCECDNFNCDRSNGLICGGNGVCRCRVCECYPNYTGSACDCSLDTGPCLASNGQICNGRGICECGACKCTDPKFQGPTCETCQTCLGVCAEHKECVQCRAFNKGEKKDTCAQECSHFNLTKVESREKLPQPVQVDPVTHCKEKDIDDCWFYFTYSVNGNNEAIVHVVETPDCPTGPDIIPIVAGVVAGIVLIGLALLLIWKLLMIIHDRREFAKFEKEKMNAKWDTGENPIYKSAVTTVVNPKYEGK
Sequence of activated VLA4 on the surface of the 5TGM1-GFP murine myeloma cells (Q00651 34-1039 limits assumed): as the sequence (Q00651 34-1039 limits assumed) above
Sequence of activated VLA4 on the surface of the 5TGM1-GFP murine myeloma cells (P09055 21-798): as the sequence (P09055 21-798) above
Sequence of activated VLA4 on RPMI-8226 (P13612 34-1032): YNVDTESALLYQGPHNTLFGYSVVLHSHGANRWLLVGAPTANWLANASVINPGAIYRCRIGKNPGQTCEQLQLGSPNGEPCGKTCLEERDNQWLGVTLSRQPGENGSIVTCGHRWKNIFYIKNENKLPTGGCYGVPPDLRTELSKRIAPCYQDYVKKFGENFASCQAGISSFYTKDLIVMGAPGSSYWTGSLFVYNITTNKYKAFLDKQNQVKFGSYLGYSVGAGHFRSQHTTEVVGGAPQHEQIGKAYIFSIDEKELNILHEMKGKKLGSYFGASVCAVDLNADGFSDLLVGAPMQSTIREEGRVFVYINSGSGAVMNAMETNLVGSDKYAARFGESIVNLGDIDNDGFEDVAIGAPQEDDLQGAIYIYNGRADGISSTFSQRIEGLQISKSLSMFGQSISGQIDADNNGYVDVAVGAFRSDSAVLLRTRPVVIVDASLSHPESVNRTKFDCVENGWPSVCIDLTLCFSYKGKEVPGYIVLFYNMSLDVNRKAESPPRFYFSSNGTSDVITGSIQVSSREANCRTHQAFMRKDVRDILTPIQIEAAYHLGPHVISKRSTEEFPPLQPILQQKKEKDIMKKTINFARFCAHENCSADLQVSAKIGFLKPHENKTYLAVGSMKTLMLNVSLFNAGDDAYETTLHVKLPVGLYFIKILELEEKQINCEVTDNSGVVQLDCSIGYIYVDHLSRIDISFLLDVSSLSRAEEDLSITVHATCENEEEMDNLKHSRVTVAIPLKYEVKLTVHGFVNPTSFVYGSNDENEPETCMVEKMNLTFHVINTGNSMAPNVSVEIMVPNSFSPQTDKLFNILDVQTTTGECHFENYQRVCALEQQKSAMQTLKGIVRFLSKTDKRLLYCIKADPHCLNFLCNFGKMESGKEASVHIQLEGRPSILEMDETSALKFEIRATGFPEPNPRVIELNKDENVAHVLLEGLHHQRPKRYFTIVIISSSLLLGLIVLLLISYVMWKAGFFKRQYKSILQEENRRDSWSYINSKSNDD
Sequence of activated VLA4 on RPMI-8226 (P05556 21-798): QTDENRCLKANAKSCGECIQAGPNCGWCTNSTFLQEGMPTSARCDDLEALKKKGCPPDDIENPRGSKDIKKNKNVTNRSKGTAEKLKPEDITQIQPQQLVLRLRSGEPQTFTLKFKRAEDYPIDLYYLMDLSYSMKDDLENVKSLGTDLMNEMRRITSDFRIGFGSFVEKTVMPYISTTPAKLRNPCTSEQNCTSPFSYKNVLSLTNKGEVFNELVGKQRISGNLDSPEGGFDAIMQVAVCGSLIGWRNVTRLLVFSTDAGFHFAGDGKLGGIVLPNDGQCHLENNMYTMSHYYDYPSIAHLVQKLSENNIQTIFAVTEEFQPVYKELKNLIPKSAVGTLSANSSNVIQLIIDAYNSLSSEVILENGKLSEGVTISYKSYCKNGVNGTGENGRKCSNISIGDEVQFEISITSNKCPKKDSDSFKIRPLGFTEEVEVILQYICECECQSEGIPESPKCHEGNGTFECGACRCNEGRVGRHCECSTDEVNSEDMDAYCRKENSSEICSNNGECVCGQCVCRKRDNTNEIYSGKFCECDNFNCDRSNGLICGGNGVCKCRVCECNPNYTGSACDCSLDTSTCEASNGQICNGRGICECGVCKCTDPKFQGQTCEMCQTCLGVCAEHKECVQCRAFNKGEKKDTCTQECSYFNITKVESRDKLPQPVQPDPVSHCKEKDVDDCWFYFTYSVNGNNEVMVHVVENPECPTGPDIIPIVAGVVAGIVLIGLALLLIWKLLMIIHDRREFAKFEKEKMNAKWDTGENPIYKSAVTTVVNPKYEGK
Sequence of activated VLA4 on U266 (P13612 34-1032): as the sequence (P13612 34-1032) above
Sequence of activated VLA4 on U266 (P05556 21-798): as the sequence (P05556 21-798) above
Sequence of activated VLA4 on MM1.S (P13612 34-1032): as the sequence (P13612 34-1032) above
Sequence of activated VLA4 on MM1.S (P05556 21-798): as the sequence (P05556 21-798) above
Sequence of activated VLA4 on OPM2 (P13612 34-1032): as the sequence (P13612 34-1032) above
Sequence of activated VLA4 on OPM2 (P05556 21-798): as the sequence (P05556 21-798) above
Sequence of activated VLA4 on H929 (P13612 34-1032): as the sequence (P13612 34-1032) above
Sequence of activated VLA4 on H929 (P05556 21-798): as the sequence (P05556 21-798) above
Sequence of activated VLA4 on 5TGM1 (Q00651 34-1039 limits assumed): as the sequence (Q00651 34-1039 limits assumed) above
Sequence of activated VLA4 on 5TGM1 (P09055 21-798): as the sequence (P09055 21-798) above
Sequence of activated VLA4 on CD138+CD38+ MM PCs (P13612 34-1032): as the sequence (P13612 34-1032) above
Sequence of activated VLA4 on CD138+CD38+ MM PCs (P05556 21-798): as the sequence (P05556 21-798) above

`Cc1ccccc1NC(=O)Nc1ccc(CC(=O)N[C@@H](CCCCNC(=O)/C=C/c2cccnc2)C(=O)N[C@@H](CCCC(=O)O)C(=O)NC2(C(N)=O)CCCCC2)cc1` [LLP2A-Cy5]: the “uptake in KO tumor foci compared with WT” value in data set [1] (KaLwRij mice with Itga4 KO versus WT 5TGM1-GFP tumors, ex vivo fluorescence imaging 18 h after LLP2A-Cy5) was “significantly reduced uptake”. Further, in [1] (setting [7]), the femur-muscle fluorescence ratio was 7.0 ± 2.5. Moreover, in data set [1] (setting [7]), the spleen-muscle fluorescence ratio is 2.6 ± 0.7. The “time post-injection at which tumor contrast peaked” value in [1] (noninvasive fluorescence imaging before, 4 and 18 h after i.v. 100 µL of 25 µM LLP2A-Cy5) was ~ 18 h. Besides, the “percentage of LLP2A-Cy5+ cells” value came out at 58.2% in the data set on monocytes, 23.3% in the data set with B-lymphocytes and 36.3% in the data set on T-lymphocytes. Also, the “relative median fluorescence (RMFI)” value in the data set with monocytes is 3.0; in the data set with B-lymphocytes it was 1.7; with T-lymphocytes, 2.2. In data set [2] (1 µM, 37 °C, 2.5 h, confocal 3D z-stack), the “cellular localization after extended incubation” value was “dominant cell membrane binding; also recorded: strong cell surface binding with minimal internalization”. The “fold reduction of cell surface binding on blocking with excess unlabeled peptide” value in [2] (LLP2A-Cy5 1 µM co-incubated with 100-fold excess LLP2A-PEG4 (100 µM), 15 min, 4 °C, confocal microscopy) was found to be 3.07 ± 0.3 fold. Besides, the “% LLP2A-Cy5+ cells in the BM” value in [3] (ex vivo BM, GFP+ tumor cells (97.5% VLA4+)) is 84.7%. In [3] (hematopoietic BM niche (63.6% VLA4+)), the “% LLP2A-Cy5+ cells in the hematopoietic BM niche” value was 53.2%. In data set [4], the “share of patient samples in which LLP2A-Cy5 stained over 20% of CD138+CD38+ MM PCs” value was found to be 68%. Further, the “binding to WT cells (flow cytometry gate)” value in data set [5] came out at 100%. The “binding to WT cells after pre-incubation with BIO5192” value in data set [5] amounted to 0.95%. Further, the “% LLP2A-Cy5+” value was 63.3% at activated VLA4 on H929; 100% at activated VLA4 on 5TGM1; 80.1% on activated VLA4 on OPM2; 100% at activated VLA4 on U266; 59.5% in data set [6]; 22.4% at activated VLA4 on MM1.S. In addition, the “LLP2A-Cy5+ median fluorescence intensity (MFI)” value at activated VLA4 on H929 is reported as 3.4; on activated VLA4 on 5TGM1, 23.4; at activated VLA4 on OPM2, 4.6; at activated VLA4 on U266, 16.1; in [6], 3.2; at activated VLA4 on MM1.S, 2.1. Also, the “binding to KO cells (flow cytometry gate)” value in the data set with VLA4 KO 5TGM1-GFP cells amounted to 0.6%. Besides, the “binding to KO cells after pre-incubation with BIO5192” value in the data set with VLA4 KO 5TGM1-GFP cells is reported as 0.52%.

B1: sVCAM-1: soluble vascular cell adhesion molecule-1, natural ligand of VLA4 (protein, UniProt P19320 25-698, looked up)
extracellular domain: FKIETTPESRYLAQIGDSVSLTCSTTGCESPFFSWRTQIDSPLNGKVTNEGTTSTLTMNPVSFGNEHSYLCTATCESRKLEKGIQVEIYSFPKDPEIHLSGPLEAGKPITVKCSVADVYPFDRLEIDLLKGDHLMKSQEFLEDADRKSLETKSLEVTFTPVIEDIGKVLVCRAKLHIDEMDSVPTVRQAVKELQVYISPKNTVISVNPSTKLQEGGSVTMTCSSEGLPAPEIFWSKKLDNGNLQHLSGNATLTLIAMRMEDSGIYVCEGVNLIGKNRKEVELIVQEKPFTVEISPGPRIAAQIGDSVMLTCSVMGCESPSFSWRTQIDSPLSGKVRSEGTNSTLTLSPVSFENEHSYLCTVTCGHKKLEKGIQVELYSFPRDPEIEMSGGLVNGSSVTVSCKVPSVYPLDRLEIELLKGETILENIEFLEDTDMKSLENKSLEMTFIPTIEDTGKALVCQAKLHIDDMEFEPKQRQSTQTLYVNVAPRDTTVLVSPSSILEEGSSVNMTCLSQGFPAPKILWSRQLPNGELQPLSENATLTLISTKMEDSGVYLCEGINQAGRSRKEVELIIQVTPKDIKLTAFPSESVKEGDTVIISCTCGNVPETWIILKKKAETGDTVLKSIDGAYTIRKAQLKDAGVYECESKNKVGSQLRSLTLDVQGRENNKDYFSPE
modifications: extracellular domain
notes: soluble vascular cell adhesion molecule-1, natural ligand of VLA4
B1: in [5], the “binding to WT cells (flow cytometry gate)” value amounted to 97.7% and the “binding to WT cells after pre-incubation with BIO5192” value is on record as 3.33%. Further, in the data set on VLA4 KO 5TGM1-GFP cells, the “binding to KO cells (flow cytometry gate)” value is reported as 1.65 ± 0.07% and the “binding to KO cells after pre-incubation with BIO5192” value came out at 2.51%.
